# Reference: US11534457B2, “Use of dextran sulfate” (priority 2017, dated 2022)
# Legend:
# [1] = tested on: βIII-tubulin expression in human motor neurons; assay: βIII-tubulin immunostaining (differentiation-related protein expression); format: cell-based; details: 48 h
# Protocol: Neurons were cultured as 40,000 cells per well and Schwann cells 3,000 cells per. Cells were treated after 24 hours. The number of cells per well depended on the growth phenotype, proliferative capacity, etc.
# NeuroBlast was pre-warmed to 37° C. Cells were thawed in a 37° C. water bath for no longer than 2 min. 1 ml of media was gently added drop-wise. Cells were resuspended and transferred to a 15 ml tube containing 9 ml of medium. Cells were centrifuged at 200 relative centrifugal force (RCF) for 5 min. Pellet was resuspended in 5 ml of medium and cells were counted with the Cellometer. 40,000 cells per well were seeded in previously coated 96-well plates. Cells were incubated at 37° C. with 5% CO2. Cells were allowed to settle for 24 hours before drug treatment. […]
# LMW-DS was prepared in the culture media of choice for each cell line and added to the respective wells in the doses 0.01 and 0.1 mg/ml. For cell survival assays cells were analyzed after 24 and 48 hours in eight identical wells/dose/time point. Differentiation and protein expression assay was analyzed after 48 hours, also in octuplicates. […]
# The Acumen cytometer allows the direct cytometric analysis of attached cells without prior detachment. […] The protein content of the cells can also be directly measured and expressed as either ‘total protein content’ or ‘mean protein content’.
# [2] = tested on: 3C system [HUVEC+(IL-1β, TNFα and IFNγ)]; assay: BioMAP 3C system; format: cell-based, Human
# Excerpt: In this study LMW-DS was characterized by profiling in the BioMAP® Diversity PLUS panel. The BioMAP® panel consists of human primary cell-based systems designed to model different aspects of the human body in an in vitro format. The 12 systems in the BioMAP® Diversity PLUS panel (Table 32) allow test agent characterization in an unbiased way across a broad set of systems modeling various human disease states. The BioMA®P systems are constructed with one or more primary cell types from healthy human donors, with stimuli, such as cytokines or growth factors, added to capture relevant signaling networks that naturally occur in human tissue or pathological conditions. […]
# Systems are derived from either single cell types or co-culture systems. […] Test agents prepared in either DMSO (small molecules; final concentration 0.1%) or PBS (biologics) are added at the indicated concentrations 1-hr before stimulation, and remain in culture for 24-hrs or as otherwise indicated (48-hrs, MyoF system; 72-hrs, BT system (soluble readouts); 168-hrs, BT system (secreted IgG)). […] Soluble factors from supernatants are quantified using either HTRF® detection, bead-based multiplex immunoassay or capture ELISA. Overt adverse effects of test agents on cell proliferation and viability (cytotoxicity) are detected by sulforhodamine B (SRB) staining, for adherent cells, and alamarBlue® reduction for cells in suspension. […]
substance,measurement,setting,value
low molecular weight dextran sulfate [LMW-DS],βIII-tubulin expression,[1]; 0.01 and 0.1 mg/ml,significantly increased
same,size of the majority of βIII-tubulin positive cells vs control cultures,[1],smaller
same,Increased biomarker activity,[2],IL-8
